Measured values: patent publication US20160274087A1, “SCREENING ASSAY FOR AGENTS THAT INFLUENCE BETA CELL NUMBER AND/OR PHENOTYPE” (VRIJE UNIVERSITEIT BRUSSEL, priority 2013, published 2016)

Legend:
alloxan-diabetic mice = assay: Implantation of in vitro expanded beta cells in alloxan-diabetic mice; format: in vivo
Experimental: FIG. 8. Alloxan-induced diabetes in mice can be reversed with implantation of in vitro-generated beta cells. Sorted beta cells were cultured in control medium or in the presence of HC up to day 9 and then switched to basal condition for the last six days of culture. IPGTT was used to determine glucose clearance rate. Glucose was administered (3 g/kg body weight) by in intraperitoneal injection into a 2 h-fasted animals and blood glucose levels were measured at the indicated time points during the following 120-min. Data are from animals transplanted with control cells (black triangles; n=3), in vitro expanded cells (black squares; n=5) and normal control animals (inverted triangles; n=2).
In this respect was it relevant to adjust culture conditions so that the expanded beta cell mass was not degranulated. We compared the in vivo function and hormone reserve of implants that were formed by equal numbers of beta cells collected from either control or HC-treated preparations, HC being withdrawn for the last 6 days (as in Table 7). At the end of 15 days culture, cell yield after HC was 54 to 110 percent higher than in control (paired cultures from three different islet isolation experiments), thus allowing preparation of more grafts per experiment. Respective grafts contained a similar number of beta cells and a similar total hormone content (for the three experiments between 10 to 15 μg insulin per graft). […] Both also presented an equally rapid normalization of glycemia following an intraperitoneal glucose load with similar kinetics to normal control animals (FIG. 8).

rat beta cells [1] = assay: Number of living beta cells in culture (Hoechst 33342/propidium iodide whole-well imaging counts; expansion assay); format: cell-based
Experimental: (§1) Beta cells were FACS-purified from islet-cell enriched suspensions (Pipeleers et al., 1985) prepared from neonatal (2-3 days-old) and adolescent or adult (8 or 40-week-old, male) Wistar rats (Janvier Bioservices, France); their purity was, respectively 70-75% and over 90%. Sorted cells were counted in a hemocytometer, seeded (day 0) and cultured for up to 15 days in serum-free Ham's-F10 medium at 5, 10 or 20 mmol/l glucose, supplemented with 2 mmol/l L-glutamine, 50 μM 3-isobutyl-1-methylxanthine, 0.5% Albumax-I, penicillin (100 U/ml) and streptomycin (0.1 mg/ml). The 10 mmol/l glucose condition is known to maintain beta cell survival over 9-days (Ling et al., 1994; Ling and Pipeleers, 1994). Medium and cells were retrieved after selected culture periods and assayed for insulin content; data were expressed as a function of the number of living beta cells that was determined in parallel wells.
On day 1, 9 and 15 of culture, total numbers of living beta cells per well were determined by semi-automatic cell count, after Hoechst 33342 (Ho) and propidium iodide (PI) staining. Numbers of living beta cells were obtained by subtracting the PI-positive cell numbers from the Ho-positive cell numbers, and correcting for the percent insulin-negative cells, as determined following insulin-immunofluorescence staining. They were expressed as percent of the numbers on day 1. Each condition was also evaluated for increases in the percentage of proliferating beta cells (incorporating the thymidine-analogue 5-ethynyl-2′-deoxyuridine, EdU; 100 μmol/l). To detect beta cells that underwent two successive cycles, cells were sequentially exposed to two different thymidine-analogs, first EdU from day 3 to 6, and then BrdU (100 μmol/l) from day 7 to 10, with a 24-hour label-free period in between. EdU-positive (EdU^+) nuclei were detected with the Click-iT Assay kit (Invitrogen), while BrdU-positive (BrdU^+) nuclei were identified with anti-BrdU antibody.
Absolute number of cells was determined by whole-well imaging using the BD-PathwayBioimager855 (BD-Biosciences). IPLab and AttoVision software packages (BD-Biosciences) were used for image background subtraction, segmentation and quantification.
Experimental procedures for isolation of beta cells from neonatal (2-3 days old) and adult (8 or 40 week old, male) Wistar rats (Janvier Bioservices, France) and analysis of their number, viability and proliferation activity in culture have been described before (Assefa et al., 2014). Sorted beta cells were seeded in 804G matrix-coated plates (designated as day 0) and the numbers and viability of seeded cells at the start of all experiments were determined on day 1 (24 h after seeding). The cells were cultured in control medium, which is a serum-free Ham's F10 medium supplemented with 2 mM L-glutamine, 50 μM 3-isobutyl-1-methylxanthine, 0.5% Albumax I, penicillin (100 U/ml), streptomycin (0.1 mg/ml) and, unless indicated otherwise, 10 mM glucose.
Sorted beta cells were seeded in 384-well or 6-well plates coated with 804G matrix, and kept in culture for up to 15 days at 37° C. 5% CO2 using Ham F10 supplemented with 1 mM L-glutamine, 0.1 mg/ml streptomycin, 0.075 mg/ml penicillin, 50 μM of isobutyl-1-methylxanthine (IBMX) at 10 mM D-glucose with and without synthetic GCs (6 methyl-prednisolone (6MP), dexamethasone (DEX), GR-modulators (compound A (CPA), mifepristone (MIF), and NFκB inhibitors (JSH-23 en Bay11-7085). Total cell number and beta cell viability was evaluated after incubation with Hoechst 33342 and propidium iodide. All chemicals were from Sigma Life Sciences or Merck. Quantification of cell numbers and analysis of beta-cell viability was done using the Pathway Bioimager (BD Biosciences) and using IPlab and Attovision software for background subtraction as described prior (Assefa et al., 2014).

rat beta cells [2] = assay: Glucose utilization and oxidation by isolated beta cells; format: cell-based; settings: 6-day HC treatment
Experimental: FIG. 9: Glucose utilization and oxidation by isolated beta cells after treatment with HC. Purified rat beta cells were cultured for six days in control medium (white squares) or with HC (black triangles) at 10 mM glucose. Glucose utilization (A) was determined by the rate of D-(5-^3H)glucose conversion into ^3H2O and glucose oxidation (B) by that of D-(U-^14C)glucose into ^14CO2 during a 2 h incubation period at the indicated concentrations of glucose without HC. Values represent means±SEM, n=6; *, p<0.05 versus control.
Because GC signaling controls metabolic processes including glucose metabolism and we have previously reported that glucose regulates rat beta cell numbers through effects on beta cell survival and proliferation (Assefa et al., 2014)(Example 1), we investigated whether HC-induced beta cell proliferation is associated with a change in glucose metabolism. First, the metabolic effect of a 6-day treatment with HC was analyzed by 2 h glucose utilization and oxidation rates at different glucose concentrations. […] Further, HC treatment doubles the rates of both utilization and oxidation at 10 mM glucose as compared to those in control cells (p<0.05).

rat beta cells [3] = assay: Cellular insulin content, insulin release and glucose-stimulated insulin secretion of cultured beta cells; format: cell-based; settings: for Insulin Content Day 15: HC
Experimental: as §1

Compound: C[C@]12CCC(=O)C=C1CC[C@@H]1[C@@H]2[C@@H](O)C[C@@]2(C)[C@H]1CC[C@]2(O)C(=O)CO [Hydrocortisone, hydrocortisone]
- circulating C-peptide level at week 1 post-transplantation (alloxan-diabetic mice; HC group grafts, control 2.3±0.2): 2.4 ± 0.2 nM
- circulating C-peptide level at week 5 post-transplantation (alloxan-diabetic mice; HC group grafts, control 2.6±0.2): 2.6 ± 0.4 nM
- Insulin Content, Pancreas (alloxan-diabetic mice; animals transplanted with cells from proliferation condition (HC up to day 9, then control medium)): 0.7 ± 0.2 μg/sample
- Insulin Content, Graft (alloxan-diabetic mice; animals transplanted with cells from proliferation condition (HC up to day 9, then control medium), post-transplantation week 4): 7.2 ± 1.3 μg/sample
- correction of hyperglycemia after implantation (alloxan-diabetic mice; grafts of HC-treated beta cells in abdominal fat pad): corrected hyperglycemia within one week
- Number of Living Cells on Day 15 (% of Day 1) (rat beta cells [1]; 9 days, HC, 6 days, control): 168.1 ± 6.8 % of Day 1
- Number of Living Cells on Day 15 (% of Day 1) (rat beta cells [1]; 15 days, HC (Table 7), control 102.5 ± 6.1): 173.9 ± 7.1 % of Day 1
- Number of Living Cells on Day 15 (% of Day 1) (rat beta cells [1]; HC alone, 15 days (Table 6)): 156 ± 4 % of Day 1
- Number of Living Cells on Day 15 (% of Day 1) (rat beta cells [1]; HC, glucose 7.5 high-responsive cells, control 99.0 ± 1.5): 182.0 ± 4.9 % of Day 1
- Number of Living Cells on Day 15 (% of Day 1) (rat beta cells [1]; HC, glucose 7.5 low-responsive cells, control 94.0 ± 9.2): 117.3 ± 5.2 % of Day 1
- Number of Living Cells on Day 15 (% of Day 1) (rat beta cells [1]; HC, mixed beta cell population, control 110.7 ± 5.0): 169.0 ± 9.3 % of Day 1
- increase in absolute number of living beta cells in culture (rat beta cells [1]; two-weeks culture): near population doubling
- rates of glucose utilization and oxidation compared to control cells (rat beta cells [2]; 10 mM glucose): doubles
- increase of glucose utilization and oxidation over control cells (rat beta cells [2]; 20 mM glucose): 50%
- Insulin Content Day 15 (rat beta cells [3]; 9 days, 6 days, control): 33.1 ± 2.9 ng/10^3 cells
- Insulin Content Day 15 (rat beta cells [3]; 15 days, control 35.3 ± 3.6): 9.3 ± 0.7 ng/10^3 cells
- Insulin Content Day 9 (rat beta cells [3]; continuous HC, control 23.7 ± 0.9): 14.0 ± 1.4 ng/10^3 cells
- loss of insulin content on day 9 (rat beta cells [3]; continuous incubation with HC): 56%
- loss of insulin content on day 15 (rat beta cells [3]; continuous incubation with HC): more than 70%
